These results are taken from patent US6689574B1, “Assays for nuclear receptor agonists and antagonists using fluorescence resonance energy transfer” (Merck & Co., Inc., priority 1997, dated 2004).

What all share (type): biochemical
In assay [1] the target is T1, GST-hPPARγ1LBD (Homo sapiens, UniProt P37231).
T1 construct: amino acids 176-478 of PPARγ1; made in house; host or cells: E. coli (DH5α)
Briefly: FRET assay, biotin-hCBP1-453 with SA-XL665, GST-hPPARγ1LBD and Eu3+K-labeled anti-GST antibody (experiment 4). As to conditions: HEPES + 0.05% CHAPS, 1 μM AD5075, ratio 665 nm/620 nm. As for the experimental part: To further improve the signal to noise ratio, a series of experiments were conducted. Experiment 4 of Table 1 exemplifies 5 results obtained from those efforts. cDNA encoding a longer fragment of hCBP was cloned and expressed to get hCBP1-453. hCBP1-453 was biotinylated. Biotin-labeled hCBP1-453 (25 nM), SA-XL665 (100 nM), GST-hPPARγ1LBD (1 nM), and Eu3+K-labeled anti-GST antibody (2 nM) were mixed together in the presence or absence of 1 μM AD5075. […] A three- to four-fold signal-noise ratio was obtained.

Assay [2] concerns the target T2, PPARγ1LBD (Homo sapiens, UniProt P37231). As to the kind of experiment: FRET assay, Eu3+K-labeled hCBP1-113 with biotin-hPPARγ1LBD and SA-XL665 (experiments 1 and 2). Set-up: amino acids 176-478 of PPARγ1; GST (N, cleaved yes); made in house; host or cells: E. coli (DH5α). The conditions noted are these: 1 μM AD5075, ratio 665 nm/620 nm. An excerpt:
Experiments were first conducted using hCBP1-113 and hPPARγ1LBD. Purified hPPARγ1LBD was biotinylated with Sulfo-NHS-LC-Biotin (PIERCE) to a biotin:hPPARγ1LBD ratio of 3:1 according to the procedure provided by PIERCE. Purified hCBP1-113 was directly labeled with europium cryptate (Eu3+K) by the method illustrated in FIG. 1.
Thus, this experimental format made use of the fluorescent reagent pair europium cryptate (Eu3+K), which acted as donor, and XL665, which acted as acceptor. hCBP1-113 was directly labeled with europium cryptate (Eu3+K); hPPARγ12LBD was indirectly labeled with XL665 by means of a biotin-streptavidin link. The emission maximum of europium cryptate (Eu3+K) overlaps with the absorption maximum of XL665. Therefore, when europium cryptate (Eu3+K) and XL665 are in close proximity, and the sample is illuminated with light at 337 nm (the absorption maximum of europium cryptate (Eu3+K)), FRET can occur between europium cryptate (Eu3+K) and XL665. This FRET manifests itself as increased emission at 665 nm by XL665. […] When agonist is bound to hPPARγ1LBD, a specific interaction occurs between hPPARγ1LBD and hCBP1-113, thus bringing europium cryptate (Eu3+K) and XL665 into close enough proximity for FRET to occur. […]

The target in assay [3] is T2, PPARγ1LBD. Briefly: FRET assay, GST-hCBP1-113 with Eu3+K-labeled anti-GST antibody, biotin-hPPARγ1LBD and SA-XL665 (experiment 3). Set-up: amino acids 176-478 of PPARγ1; GST (N, cleaved yes); made in house; host or cells: E. coli (DH5α). As to conditions: HEPES + 0.05% NP40, 1 μM AD5075, ratio 665 nm/620 nm. On the procedure:
In order to get an even better signal-noise ratio, the above-described format was modified slightly for experiment 3. In experiment 3, SA-XL665 (500 nM), biotin-labeled hPPARγ1LBD (100 nM), GST-hCBP1-113, and Eu3+K labeled anti-GST antibody (2.5 μl) were incubated in the presence or absence of AD5075 (1 μM) in HEPES buffer containing 0.05% NP40. A two-fold signal- noise ratio was obtained.
The anti-GST antibody was a goat antibody to GST from Pharmacia (catalogue number 27-4577-01) that was labeled with Eu3+K according to the procedure summarized below. [drawing 2]

Assay [4] addresses T3, PPARγ (Homo sapiens, UniProt P37231).
T3 construct: amino acids 176-478 of PPARγ1; GST (N); made in house; host or cells: E. coli (DH5α)
As to the kind of experiment: Titration of known PPARγ agonists in the CBP/PPARγ FRET assay (FIG. 5). The conditions noted are these: derived from FIG. 5; agonist-induced CBP-PPARγ FRET.

T2 sequence (P37231 204-505): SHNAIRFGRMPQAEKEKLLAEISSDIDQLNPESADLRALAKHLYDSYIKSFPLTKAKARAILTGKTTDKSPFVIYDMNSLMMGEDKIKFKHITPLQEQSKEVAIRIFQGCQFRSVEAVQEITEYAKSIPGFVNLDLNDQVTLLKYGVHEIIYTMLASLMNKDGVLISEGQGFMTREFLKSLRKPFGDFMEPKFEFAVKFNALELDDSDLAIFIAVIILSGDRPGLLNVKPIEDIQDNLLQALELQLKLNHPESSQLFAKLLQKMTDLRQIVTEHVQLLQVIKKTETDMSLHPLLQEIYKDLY
T2 sequence (Q92793 1-113 partner): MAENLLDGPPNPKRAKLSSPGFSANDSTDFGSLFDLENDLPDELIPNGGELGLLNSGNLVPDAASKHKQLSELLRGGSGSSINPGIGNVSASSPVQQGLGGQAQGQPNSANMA
T3 sequence (P37231 204-505 limits assumed): as the sequence (P37231 204-505) above
T3 sequence (Q92793 1-453 partner limits assumed): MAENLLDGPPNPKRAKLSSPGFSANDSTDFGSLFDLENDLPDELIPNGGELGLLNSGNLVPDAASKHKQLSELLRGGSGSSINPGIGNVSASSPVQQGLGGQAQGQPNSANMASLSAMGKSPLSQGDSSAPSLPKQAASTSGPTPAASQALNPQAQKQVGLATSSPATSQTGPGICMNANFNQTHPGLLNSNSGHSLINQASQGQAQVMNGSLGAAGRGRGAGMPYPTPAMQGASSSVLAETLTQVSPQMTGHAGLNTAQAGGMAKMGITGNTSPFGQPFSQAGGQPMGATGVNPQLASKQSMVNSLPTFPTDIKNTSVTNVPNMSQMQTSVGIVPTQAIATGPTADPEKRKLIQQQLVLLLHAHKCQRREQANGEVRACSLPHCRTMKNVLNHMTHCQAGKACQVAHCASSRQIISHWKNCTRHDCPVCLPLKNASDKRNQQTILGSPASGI
T1 sequence (P37231 204-505): as the sequence (P37231 204-505) above
T1 sequence (Q92793 1-453 partner): as the sequence (Q92793 1-453 partner limits assumed) above

By EC50 is commonly meant the midpoint of the concentration-response curve. A higher EC50 goes with weaker potency. For the compound `Cc1oc(-c2ccccc2)nc1C(O)COc1ccc(CC2SC(=O)NC2=O)cc1` (centres unmarked) [AD5075], the “Emission ratio with AD5075” value in assay [1] was 1883; in assay [2] (Experiment 1, PBS buffer), 1134; in assay [2] (Experiment 2, HEPES + 0.05% NP40), 967; in assay [3], 1078. Further, a half-maximal effect in assay [4] (EC50) was put at 8 nM.
